According to patent US11629179B2, “TWEAK-receptor agonists for use in combination with immunotherapy of a cancer” (Stichting Het Nederlands Kanker Instituut - Antoni van …, priority 2018, dated 2023):

Tests used:
BLM [1] = experiment: NSG murine xenograft of BLM clones with ACT of MART-1 T cells; format: in vivo, mouse
Protocol: For xenograft studies, 1×10^6 D10 or BLM tumor cells were admixed with Matrigel (Corning) and injected subcutaneously into NSG-β2M^null mice (The Jackson Laboratory). Growth was monitored three times per week with calipers, and tumor size was calculated using the following formula: ½×length (mm)×width (mm). When tumors reached indicated sizes, mice were randomized over different treatment groups in a blinded fashion and were administered 5×10^6 human CD8 T cells, intravenously in the tail vein. In vivo persistence of T cells was stimulated by administering 100.000 U IL-2 (Proleukin, Novartis) intraperitoneally daily for three consecutive days. In selected experiments, birinapant (MedChem Express) was administered intraperitoneally once every three days. […] In selected experiments, the PD-1-blocking antibody nivolumab (Slotervaart Hospital) was given once weekly (5 mg/kg). For studies in immunocompetent mice, 3×10^5 D4M.3A cells were injected subcutaneously into C57BI/6J mice (Janvier) and tumor growth was monitored three times per week with calipers.
(§1) To prepare lysates, snapfrozen tumor piecesd were weighed and lysed in RIPA buffer (50 mM TRIS pH 8.0, 150 mM NaCl, 1% Nonidet P40, 0.5% sodium deoxycholate, 0.1% SDS) supplemented with complete protease inhibitor cocktail (Roche Applied Science) and phosphatase inhibitors 10 mM NaF, 1 mM Na3VO4, 1 mM sodium pyrophosphate and 10 mM beta-glycerophosphate. Protein concentration was determined using a Bradford Protein Assay (Biorad).

SK-MEL-23 = experiment: Caspase-3/7 dye tumor cell apoptosis after MART-1 T cell attack, SK-MEL-23; format: cell-based, human; conditions: combined with TRAF2 inactivation; neutralizing TNF antibody (FIG. 6B)
Protocol: (§2) 1.2×10^5 tumor cells were seeded per well in 12-well culture plates (Greiner). CD8 T cells were admixed in serial dilutions (two-fold, starting at a 1:1 ratio). After 24 hours, T cells were washed away. After a further 4 days, plates were fixed and stained for 1 hour using a crystal violet solution containing 0.1% crystal violet (Sigma) and 50% methanol (Honeywell). For quantification, remaining crystal violet was solubilized in 10% acetic acid (Sigma). Absorbance of this solution was measured on an Infinite 200 Pro spectrophotometer (Tecan) at 595 nm. In select experiments, tumor viability data was assessed with CellTiter-Blue (Promega) following manufacturer's instructions. In indicated experiments, 1 uM of birinapant (Selleck Chemicals) in DMSO (Sigma) was added during co-cultures. For Incucyte (Incucyte Zoom, Essen Bioscience) experiments, 5×10^3 tumor cells were seeded per well in 96-well culture plates (Greiner). CD8 T cells were admixed in indicated ratios and a Caspase-3/7 dye (Essen Bioscience) was added. Growth of these co-cultures was followed for 48 hours. […] In indicated experiments, enavatuzumab (indicated concentrations; Creative Biolabs) in the presence or absence of protein G (50 μg/mL; Thermo Fisher Scientific) was added. To cluster enavatuzumab, cells were pretreated for 1 hour with enavatuzumab, then protein G was added for a further 7 hours. […]

cIAP1/2 = conditions: Benetatos et al., 2014; FIG. 11C; cited from earlier work
[2] = tested on: panel of 11 human melanoma and lung cancer cell lines; experiment: MART-1 T cell cytotoxicity assay in a panel of tumor cell lines; format: cell-based
Protocol: as §2

BLM [3] = experiment: T cell cytotoxicity assay of BLM clones; format: cell-based, human; conditions: wildtype and TRAF2-deficient BLM clones in vitro (FIG. 11F)
Protocol: as §2

D10 melanoma cells = experiment: T cell cytotoxicity assay with MART-1 T cells; format: cell-based, human
Protocol: 1.2×10^5 tumor cells were seeded per well in 12-well culture plates (Greiner). CD8 T cells were admixed in serial dilutions (two-fold, starting at a 1:1 ratio). After 24 hours, T cells were washed away. After a further 4 days, plates were fixed and stained for 1 hour using a crystal violet solution containing 0.1% crystal violet (Sigma) and 50% methanol (Honeywell). For quantification, remaining crystal violet was solubilized in 10% acetic acid (Sigma). Absorbance of this solution was measured on an Infinite 200 Pro spectrophotometer (Tecan) at 595 nm. In select experiments, tumor viability data was assessed with CellTiter-Blue (Promega) following manufacturer's instructions. In indicated experiments, 1 uM of birinapant (Selleck Chemicals) in DMSO (Sigma) was added during co-cultures. For Incucyte (Incucyte Zoom, Essen Bioscience) experiments, 5×10^3 tumor cells were seeded per well in 96-well culture plates (Greiner). CD8 T cells were admixed in indicated ratios and a Caspase-3/7 dye (Essen Bioscience) was added. Growth of these co-cultures was followed for 48 hours. […] In indicated experiments, enavatuzumab (indicated concentrations; Creative Biolabs) in the presence or absence of protein G (50 μg/mL; Thermo Fisher Scientific) was added. To cluster enavatuzumab, cells were pretreated for 1 hour with enavatuzumab, then protein G was added for a further 7 hours. Then, CD8 T cells were added to the tumor cells for a further 16 hours.

D10 = experiment: NSG murine xenograft of D10 cells with adoptive cell transfer; format: in vivo, mouse; conditions: anti-TNF antibody injected (FIG. 4C, D)
Protocol: For xenograft studies, 1×10^6 D10 or BLM tumor cells were admixed with Matrigel (Corning) and injected subcutaneously into NSG-β2M^null mice (The Jackson Laboratory). Growth was monitored three times per week with calipers, and tumor size was calculated using the following formula: ½×length (mm)×width (mm). When tumors reached indicated sizes, mice were randomized over different treatment groups in a blinded fashion and were administered 5×10^6 human CD8 T cells, intravenously in the tail vein. In vivo persistence of T cells was stimulated by administering 100.000 U IL-2 (Proleukin, Novartis) intraperitoneally daily for three consecutive days. In selected experiments, birinapant (MedChem Express) was administered intraperitoneally once every three days. Birinipant was formulated at 3 mg/ml in 12.5% captisol (CyDex Pharmaceuticals) in water adjusted to pH 4 with hydrochloric acid. […] In selected experiments, the PD-1-blocking antibody nivolumab (Slotervaart Hospital) was given once weekly (5 mg/kg). For studies in immunocompetent mice, 3×10^5 D4M.3A cells were injected subcutaneously into C57BI/6J mice (Janvier) and tumor growth was monitored three times per week with calipers.

TRAF2 = experiment: Western blot analysis of TRAF2 in treated D10 melanoma cells; format: cell-based, human
Protocol: 1.2×10^5 tumor cells were seeded per well in 12-well culture plates (Greiner). CD8 T cells were admixed in serial dilutions (two-fold, starting at a 1:1 ratio). After 24 hours, T cells were washed away. After a further 4 days, plates were fixed and stained for 1 hour using a crystal violet solution containing 0.1% crystal violet (Sigma) and 50% methanol (Honeywell). For quantification, remaining crystal violet was solubilized in 10% acetic acid (Sigma). Absorbance of this solution was measured on an Infinite 200 Pro spectrophotometer (Tecan) at 595 nm. In select experiments, tumor viability data was assessed with CellTiter-Blue (Promega) following manufacturer's instructions. In indicated experiments, 1 uM of birinapant (Selleck Chemicals) in DMSO (Sigma) was added during co-cultures. […]
as §1, with “Cells” for “To prepare lysates, snapfrozen tumor piecesd”, “were” for “were weighed and”, “(Biorad). […] Western blots were then incubated in SuperSignal West Dura Extended Duration Substrate (Thermo Scientific) and luminescence was captured on high performance autoradiography films (Amersham). […]” for “(Biorad).”

[4] = tested on: panel of 38 human tumor cell lines; conditions: cited from earlier work

With “anti-PD-1: PD-1-blocking antibody nivolumab given once weekly (5 mg/kg)” the “tumor control and overall survival” value (BLM [1]; anti-PD-1 added to TRAF2 KO plus birinapant (FIG. 6E)) was “superior tumor control, improving overall survival”, the rejection of tumors (BLM [1]; anti-PD-1 alone, wildtype BLM tumors (FIG. 6E)) was “failed to affect rejection of VVT tumors” and the “intratumoral TNF after ICB” value (BLM [1]; non-responding setting (FIG. 11I)) was “failed to see an upregulation of TNF after ICB”.

In the case of `CC[C@H](NC(=O)[C@H](C)NC)C(=O)N1C[C@@H](O)C[C@H]1Cc1c(-c2[nH]c3cc(F)ccc3c2C[C@@H]2C[C@H](O)CN2C(=O)[C@H](CC)NC(=O)[C@H](C)NC)[nH]c2cc(F)ccc12` [birinapant, (2S)—N-[(2S)-1-[(2R,4S)-2-[[6-fluoro-2-[6-fluoro-3-[[(2R,4S)-4-hydroxy-1-[(2S)-2-[[(2S) (methylamino)propanoyl]amino]butanoyl]pyrrolidin-2-yl]methyl]-1H-indol-2-yl]-1H-indolyl]methyl]-4-hydroxypyrrolidin-1-yl]-1-oxobutan-2-yl]-2-(methylamino)propanamide], the “sensitivity to T cell-derived TNF” value (SK-MEL-23) is given as “induced a de novo sensitivity to T cell-derived TNF in SK-MEL-23”, the “degradation of BIRC2/3 protein products (cIAP1/2)” value (cIAP1/2) is given as “known to degrade both BIRC2/3 protein products” and the “tumor cell survival, sgTRAF2+DMSO vs. sgTRAF2+Bir” value ([2]; MART-1 T cell cytotoxicity assay, p<0.001 (FIG. 6A)) is given as “significant for all cell lines”. The “sensitivity to T cell killing in combination with TRAF2 deletion” value ([2]; all tested tumor cell lines (FIG. 6A)) was “strong synergy between TRAF2 deletion and pharmaceutical targeting of cIAP1/2 in all tested tumor cell lines”, the “response to T cells, TRAF2 deletion plus cIAP1/2 inhibition” value (BLM [3]) was “synergistic response” and the tumor control (BLM [1]; TRAF2 KO tumors treated with birinapant (FIG. 6E)) was “better tumor control when compared to control tumors”. The “tumor volume and survival” value (BLM [1]; TRAF2 genetic inactivation plus birinapant, ACT with MART-1 T cells (FIG. 6D)) was “induced both a reduction in tumor volume and extended survival” and the “sensitivity to T cell killing in combination with TRAF2 inactivation” value (D10 melanoma cells; D10 cells sgCtrl or sgTRAF2, with or without birinapant (FIG. 11D)) was “synergized with TRAF2 inactivation in inducing sensitivity to T cell killing”.

With infliximab: TNF blocking antibody the “tumor control of TRAF2-deficient tumors after ACT with MART-1 T cells” value (D10) was “this tumor control was dependent on TNF”.

B1: TWEAK: ligand of Fn14 (TNF-like weak inducer of apoptosis); recombinant TWEAK (Peprotech) (protein)
chain: SAPKGRKTRARRAIAAHYEVHPRPGQDGAQAGVDGTVSGWEEARINSSSPLRYNRQIGEFIVTRAGLYYLYCQVHFDEGKAVYLKLDLLVDGVLALRCLEEFSATAASSLGPQLRLCQVSGLLALRPGSSLRIRTLPWAHLKAAPFLTYFGLFQVH
For B1, the “degradation of TRAF2” value (TRAF2; D10 melanoma cells treated 8 hours with recombinant human TWEAK (FIG. 3G)) was “led to the degradation of TRAF2” and the “sensitization of tumor cells to T cell killing” value (D10 melanoma cells; 250 ng/mL TWEAK during exposure to MART-1 T cells (FIG. 3H)) was “sensitized tumor cells to T cell killing”.

B2: enavatuzumab: agonistic anti-Fn14 antibody (Creative Biolabs) (antibody, chains of the INN, looked up, V domains shown)
VH: EVQLVESGGGLVQPGGSLRLSCAASGFTFSSYWMSWVRQAPGKGLEWVAEIRLKSDNYATHYAESVKGRFTISRDDSKNSLYLQMNSLRAEDTAVYYCTGYYADAMDYWGQGTLVTVSS
VL: DIQMTQSPSSLSASVGDRVTITCRASQSVSTSSYSYMHWYQQKPGKAPKLLIKYASNLESGVPSRFSGSGSGTDFTLTISSLQPEDFATYYCQHSWEIPYTFGGGTKVEIK
For B2, the “degradation of TRAF2” value (TRAF2; D10 melanoma cells treated 8 hours, presence or absence of protein G (FIG. 3I)) was “caused degradation of TRAF2, but only upon receptor clustering by the addition of protein G”, the “sensitivity to T cell cytotoxicity” value (D10 melanoma cells; clustered with protein G, D10 and SK-MEL-147, 1:8 T cell:tumor cell ratio (FIG. 3J, 9C)) was “induced sensitivity to T cell cytotoxicity in two melanoma cell lines” and the “dependence of sensitization on T cell-derived TNF” value (D10 melanoma cells; neutralization with anti-TNF antibody (FIG. 9D)) was “dependent on T cell-derived TNF”. For the same molecule, the “dependence of sensitization on TRAF2” value (D10 melanoma cells; wildtype or TRAF2-deficient tumor cells (FIG. 3J)) was “sensitization by enavatuzumab was dependent on TRAF2”.

B3: Fn14 agonistic antibody: humanized anti-Fn14 agonistic antibody described by Michaelson et al. (2011) (antibody, chains of the INN, looked up, V domains shown)
VH: EVQLVESGGGLVQPGGSLRLSCAASGFTFSSYWMSWVRQAPGKGLEWVAEIRLKSDNYATHYAESVKGRFTISRDDSKNSLYLQMNSLRAEDTAVYYCTGYYADAMDYWGQGTLVTVSS
VL: DIQMTQSPSSLSASVGDRVTITCRASQSVSTSSYSYMHWYQQKPGKAPKLLIKYASNLESGVPSRFSGSGSGTDFTLTISSLQPEDFATYYCQHSWEIPYTFGGGTKVEIK
In the case of B3, the “cell lines with growth inhibition” value [4] is given as “approximately 50%”.
